ChEMBL document CHEMBL1134868, “Phosphonate and phosphinate analogues of N-acylated gamma-glutamylglutamate. potent inhibitors of glutamate carboxypeptidase II” (Bioorg Med Chem Lett, 2002)

Target: not listed separately
Assay: Compound was evaluated for its ability to inhibit Gamma glutamylhydroxylase

Which IC50 does the source give for CN(Cc1cnc2nc(N)nc(N)c2n1)c1ccc(C(=O)N[C@@H](CCP(=O)(O)O[C@@H](CCC(=O)O)C(=O)O)C(=O)O)cc1 here?
Its IC50 is over 200000 nM.

For Nc1ccc(C(=O)N[C@@H](CCP(=O)(O)O[C@@H](CCC(=O)O)C(=O)O)C(=O)O)cc1, which IC50 is on record?
Its IC50 is over 200000 nM.

Target: Glutamate carboxypeptidase 2 (Rattus norvegicus, UniProt P70627)
Sequence (P70627 whole entry): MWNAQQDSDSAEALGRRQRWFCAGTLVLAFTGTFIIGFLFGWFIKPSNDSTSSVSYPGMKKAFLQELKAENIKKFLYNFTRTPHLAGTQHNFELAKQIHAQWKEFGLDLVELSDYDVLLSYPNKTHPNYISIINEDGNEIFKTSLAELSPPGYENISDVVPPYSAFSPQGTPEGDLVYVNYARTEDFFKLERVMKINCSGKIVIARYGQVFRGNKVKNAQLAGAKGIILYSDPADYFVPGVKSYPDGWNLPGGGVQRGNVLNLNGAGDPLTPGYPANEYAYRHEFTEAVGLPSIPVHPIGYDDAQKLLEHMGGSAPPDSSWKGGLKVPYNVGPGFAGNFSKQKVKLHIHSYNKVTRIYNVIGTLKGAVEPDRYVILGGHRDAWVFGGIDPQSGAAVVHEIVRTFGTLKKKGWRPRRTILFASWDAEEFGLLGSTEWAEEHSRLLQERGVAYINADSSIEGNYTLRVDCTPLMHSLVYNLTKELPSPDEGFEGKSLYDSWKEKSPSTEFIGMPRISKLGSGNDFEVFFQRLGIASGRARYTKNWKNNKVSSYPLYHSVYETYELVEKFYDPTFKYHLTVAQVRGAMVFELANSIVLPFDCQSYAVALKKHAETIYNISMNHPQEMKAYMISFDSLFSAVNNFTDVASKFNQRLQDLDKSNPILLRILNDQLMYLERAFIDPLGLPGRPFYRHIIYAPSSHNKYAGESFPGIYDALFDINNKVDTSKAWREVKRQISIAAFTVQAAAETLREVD
Assay: Compound was evaluated for its ability to inhibit Glutamate carboxypeptidase-II using N-acetyl-L-aspartyl-[3H]L-glutamate as substrate

Which IC50 does the source give for CN(Cc1cnc2nc(N)nc(N)c2n1)c1ccc(C(=O)N[C@@H](CCP(=O)(O)O[C@@H](CCC(=O)O)C(=O)O)C(=O)O)cc1 here?
The IC50 was 4 nM.

Which IC50 does the source give for Nc1ccc(C(=O)N[C@@H](CCP(=O)(O)O[C@@H](CCC(=O)O)C(=O)O)C(=O)O)cc1 here?
The IC50 was 3 nM.

Which IC50 does the source give for CNc1ccc(C(=O)N[C@@H](CCP(=O)(O)O[C@@H](CCC(=O)O)C(=O)O)C(=O)O)cc1 here?
The IC50 was 4 nM.

For CN(Cc1cnc2nc(N)nc(N)c2n1)c1ccc(C(=O)NC(CCP(=O)(O)OC(CCC(=O)O)C(=O)O)C(=O)O)cc1 (stereo not given), which IC50 is on record?
The IC50 was 5 nM.

Target: T1, Folylpolyglutamate synthase, mitochondrial (Homo sapiens, UniProt Q05932)
T1 sequence (Q05932 whole entry): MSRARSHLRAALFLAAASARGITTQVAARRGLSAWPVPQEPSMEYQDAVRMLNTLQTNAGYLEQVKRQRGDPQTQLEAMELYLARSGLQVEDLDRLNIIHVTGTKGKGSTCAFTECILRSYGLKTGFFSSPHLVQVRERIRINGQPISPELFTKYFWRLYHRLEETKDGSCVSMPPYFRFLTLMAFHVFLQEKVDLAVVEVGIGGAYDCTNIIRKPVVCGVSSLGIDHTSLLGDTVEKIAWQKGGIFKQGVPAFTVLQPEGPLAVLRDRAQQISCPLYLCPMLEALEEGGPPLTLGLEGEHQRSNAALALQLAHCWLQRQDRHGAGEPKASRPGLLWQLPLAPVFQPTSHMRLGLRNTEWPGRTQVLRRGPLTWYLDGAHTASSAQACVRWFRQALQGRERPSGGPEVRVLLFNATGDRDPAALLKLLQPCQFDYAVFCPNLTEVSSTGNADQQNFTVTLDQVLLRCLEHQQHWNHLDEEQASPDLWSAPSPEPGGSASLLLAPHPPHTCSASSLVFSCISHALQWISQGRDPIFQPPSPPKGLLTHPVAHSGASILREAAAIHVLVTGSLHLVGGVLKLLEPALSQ
Assay: Compound was evaluated for its ability to inhibit Folyl-poly-gamma-glutamyl synthetase

Which IC50 does the source give for CN(Cc1cnc2nc(N)nc(N)c2n1)c1ccc(C(=O)N[C@@H](CCP(=O)(O)O[C@@H](CCC(=O)O)C(=O)O)C(=O)O)cc1 here?
Its IC50 is 120 nM.

Which IC50 does the source give for Nc1ccc(C(=O)N[C@@H](CCP(=O)(O)O[C@@H](CCC(=O)O)C(=O)O)C(=O)O)cc1 here?
The IC50 was 8600 nM.

For CNc1ccc(C(=O)N[C@@H](CCP(=O)(O)O[C@@H](CCC(=O)O)C(=O)O)C(=O)O)cc1, which IC50 is on record?
The IC50 was 5700 nM.

For CN(Cc1cnc2nc(N)nc(N)c2n1)c1ccc(C(=O)NC(CCP(=O)(O)OC(CCC(=O)O)C(=O)O)C(=O)O)cc1 (stereo not given), which IC50 is on record?
Its IC50 is 20 nM.
